Patent US12048691B2 (SPERO THERAPEUTICS, INC., priority 2020, dated 2024)
Converted amounts (≈) assume the structure as drawn. Counter-ions that a name gives are not always drawn. Like-named read-outs stand apart in the source and are kept apart here. Marks after values point to notes of the source that are not given here.

Assays:
[1] = tested on: bacteremia secondary to cUTI/AP; assay: Efficacy in patients with cUTI or acute pyelonephritis and associated bacteremia; type: in vivo, human
Text: The objective of this analysis was to evaluate the efficacy of TBP-PI-HBr in the subset of patients with associated bacteremia from a study of patients with either cUTI or acute pyelonephritis.

E. coli [2] = assay: Broth microdilution MIC against characterized subsets of UTI E. coli (2018-2020); type: cell-based
Text: Isolates were collected from medical centers in all 9 US Census Regions and tested by broth microdilution. MIC interpretation was based on CLSI. Isolates that met MIC criteria were subjected to genome sequencing, followed by screening of extended-spectrum b-lactamase (ESBL) genes and epidemiology typing (MLST).

[3] = tested on: Enterobacterales overproducing AmpC; assay: Broth microdilution susceptibility of isolates overexpressing AmpC; type: cell-based
Protocol: (§1) Frozen-form broth microdilution panels were manufactured by JMI Laboratories and contained cation-adjusted Mueller-Hinton broth. Quality assurance was performed by sterility checks, colony counts, and testing CLSI recommended quality control reference strains.

[4] = tested on: Vancomycin-susceptible Enterococcus faecalis; assay: Broth microdilution against Gram-positive clinical isolates; type: cell-based; conditions: E. faecalis
Protocol: The purpose of this study was to investigate the in vitro activity of tebipenem and comparator agents, including ertapenem and meropenem, against a recent collection of Gram-positive isolates associated with clinical infections. The susceptibility of 580 Gram-positive organisms were tested, including: Methicillin-susceptible Staphylococcus aureus (MSSA, 489 isolates), Methicillin-susceptible Staphylococcus epidermidis (MSSE, 31), other methicillin-susceptible coagulase-negative staphylococci (MSCONS, 29), and Vancomycin-susceptible Enterococcus faecalis (31). Bacterial species were identified by JMI Laboratories using standard microbiology methods and matrix-assisted laser desorption ionization-time of flight mass spectrometry (Bruker Daltonics, Bremen, Germany). The isolates were collected in 2018 and 2019 as part of the SENTRY surveillance program and selected to be representative of these species with 45.0% from the United States, 44.3% from Europe, 5.3% from the Asia-Pacific region, and 5.3% from Latin America. Isolates are primarily from pneumonia in hospitalized patients (498 isolates; 85.9%), urinary tract infections (42 isolates; 7.2%), and bloodstream infections (38 isolates; 6.6%). Isolates were tested in a central laboratory (JMI Laboratories) for antimicrobial susceptibility using the CLSI M07 (2018) reference broth microdilution method. JMI Laboratories produced frozen-form 96-well panels and used cation-adjusted Mueller-Hinton broth (CA-MHB) as the testing medium. All categorical interpretations used CLSI M100 (2021) and EUCAST v10.0 (2021) breakpoint criteria, where published. Quality control organisms include Escherichia coli ATCC 25922, Escherichia coli ATCC 35218, Enterococcus faecalis ATCC 29212, Pseudomonas aeruginosa ATCC 27853, and Staphylococcus aureus ATCC 29213 were tested concurrently with clinical isolates.

E. coli [5] = assay: Susceptibility of E. coli from urinary tract infections, 18 EU countries 2020 (STEWARD); type: cell-based
Protocol: The study assessed the prevalence of resistance and evaluated the activity of oral tebipenem (TBP) and comparators against EC from urinary tract infections.
Results were interpreted using EUCAST criteria. […] ESBL phenotypes were determined by CLSI criteria and sequenced to identify CTX-M-15 genotype and clonal complex ST131.

[6] = tested on: P. aeruginosa isolates that overproduced AmpC; assay: Broth microdilution susceptibility of isolates overexpressing AmpC; type: cell-based; conditions: P. aeruginosa (32)
Protocol: as §1

P. mirabilis = assay: Broth microdilution against US UTI pathogens 2019-2020; type: cell-based; conditions: for % susceptible; CLSI: cefuroxime: oral breakpoint
Protocol: (§2) This study assessed the in vitro activity of tebipenem and comparator agents against Enterobacterales (ENT) responsible for UTIs in the US during 2019-2020. A total of 3,576 ENT recovered from urine samples during the 2019-2020 STEWARD Surveillance Program were included in the study. Isolates were collected from medical centers in all 9 US Census Regions and were centrally tested for susceptibility by reference broth microdilution method. MIC interpretation was performed based on CLSI criteria.

Enterobacterales (ENT) = assay: as above; type: cell-based; conditions: All (3,567)
Protocol: as §2

K. pneumoniae = assay: as above; type: cell-based; conditions: K. pneumoniae (511)
Protocol: as §2

E. coli [7] = assay: as above; type: cell-based; conditions: E. coli (2,339)
Protocol: as §2

**Q.** `C[C@@H](O)[C@H]1C(=O)N2C(C(=O)OCOC(=O)C(C)(C)C)=C(SC3CN(C4=NCCS4)C3)[C@H](C)[C@H]12` [Tebipenem pivoxil HBr, tebipenem pivoxil hydrobromide] was tested. Which Clinical cure rate ([1]; EOT) did it give?
**A.** Its Clinical cure rate is 100%.

**Q.** What about the Clinical cure rate ([1]; TOC) of the same compound?
**A.** The Clinical cure rate was 97.9%.

**Q.** What about the Overall response rate ([1]; end-of-treatment (EOT)) of the same compound?
**A.** The Overall response rate was 93.6%.

**Q.** What about the Clinical cure rate ([1]; late-follow-up (LFU) visit) of the same compound?
**A.** Its Clinical cure rate is “approximately 89%”.

**Q.** What about the Overall response rate ([1]; test-of-cure (TOC)) of the same compound?
**A.** Its Overall response rate is 72.3%.

**Q.** Which MIC50 (E. coli [2]) does the source give for `C[C@@H](O)[C@H]1C(=O)N2C(C(=O)OCOC(=O)C(C)(C)C)=C(SC3CN(C4=NCCS4)C3)[C@H](C)[C@H]12` [Tebipenem pivoxil] here?
**A.** The MIC50 was 0.03/- (-) μg/mL.

**Q.** `CN(C)[C@@H]1C(O)=C(C(N)=O)C(=O)[C@@]2(O)C(O)=C3C(=O)c4c(O)cccc4[C@@](C)(O)[C@H]3C[C@@H]12` [Tetracycline] was tested. Which “CLSI %1” value ([3]; Enterobacterales (36)) did it give?
**A.** The value was 5.6%.

**Q.** What about the “CLSI % R” value ([3]; Enterobacterales (36)) of the same compound?
**A.** The value was 44.4%.

**Q.** What about the “CLSI % S” value ([3]; Enterobacterales (36)) of the same compound?
**A.** Its value is 50.0%.

**Q.** What about the MIC50 ([3]; Enterobacterales (36), read-out: MIC50) of the same compound?
**A.** Its MIC50 is 4 µg/mL (≈ 9 µM).

**Q.** And the MIC90 ([3]; Enterobacterales (36), read-out: MIC90)?
**A.** Its MIC90 is > 16 µg/mL.

**Q.** What does the source list for `CN(C)c1cc(NC(=O)CNC(C)(C)C)c(O)c2c1C[C@H]1C[C@H]3[C@H](N(C)C)C(O)=C(C(N)=O)C(=O)[C@@]3(O)C(O)=C1C2=O` [Tigecycline]?
**A.** MIC50 [3]: 0.25 µg/mL (≈ 0.427 µM); MIC90 [3]: 1 µg/mL (≈ 1.71 µM); CLSI %1 ([3]; Enterobacterales (36)): 5.6%; CLSI % R ([3]; Enterobacterales (36)): 0.0%; CLSI % S ([3]; Enterobacterales (36)): 94.4^d %; MIC range ([3]; Enterobacterales (36)): ≤0.06 to 4 μ/ml

**Q.** `CC1(C)S[C@@H]2[C@H](NC(=O)[C@H](N)c3ccccc3)C(=O)N2[C@H]1C(=O)O` [ampicillin] was tested. Which Susceptibility rate [4] did it give?
**A.** The Susceptibility rate was 100.0%.

**Q.** How did the MIC90 (E. coli [5]; Escherichia coli, all E. coli (764) from UTIs) turn out when `CC1(C)S[C@@H]2[C@H](/N=C/N3CCCCCC3)C(=O)N2[C@H]1C(=O)O` [mecillinam] was run?
**A.** Its MIC90 is > 8 µg/mL.

**Q.** What about the Susceptibility rate (E. coli [5]; all E. coli, EUCAST criteria) of the same compound?
**A.** The Susceptibility rate was 88.0%.

**Q.** With Piperacillin-tazobactam as the compound, how does the “CLSI %1” value [6] read?
**A.** Its value is 40.6%.

**Q.** What about the “CLSI % R” value [6] of the same compound?
**A.** Its value is 53.1%.

**Q.** And the “CLSI % S” value [6]?
**A.** The value was 6.2%.

**Q.** And the MIC50 [6]?
**A.** Its MIC50 is 128 μ/ml.

**Q.** What about the MIC90 [6] of the same compound?
**A.** Its MIC90 is >128 μ/ml.

**Q.** What about the “CLSI %1” value ([3]; Enterobacterales (36)) of the same compound?
**A.** The value was 19.4%.

**Q.** And the “CLSI % R” value ([3]; Enterobacterales (36))?
**A.** Its value is 33.3%.

**Q.** And the “CLSI % S” value ([3]; Enterobacterales (36))?
**A.** Its value is 47.2%.

**Q.** And the MIC50 ([3]; Enterobacterales (36))?
**A.** The MIC50 was 32 μ/ml.

**Q.** And the MIC90 ([3]; Enterobacterales (36))?
**A.** The MIC90 was >128 μ/ml.

**Q.** What does the source list for Tebipenem pivoxil?
**A.** MIC50 (P. mirabilis): 0.12 mg/L; MIC90 (P. mirabilis): 0.12 mg/L; concentration inhibiting all PM (P. mirabilis): 0.25 mg/L

**Q.** With amoxicillin-clavulanate (2:1) [A/C] as the compound, how does the “% susceptible by CLSI M100 criteria” value (E. coli [2]; CTX-M a) read?
**A.** The value was 57.6%.

**Q.** And the MIC50 (E. coli [2]; CTX-M a)?
**A.** The MIC50 was 8 µg/mL.

**Q.** And the MIC90 (E. coli [2]; CTX-M a)?
**A.** Its MIC90 is 16 µg/mL.

**Q.** What about the “% susceptible by CLSI M100 criteria” value (E. coli [2]; ESBL (360)) of the same compound?
**A.** Its value is 47.2%.

**Q.** What about the MIC50 (E. coli [2]; ESBL (360)) of the same compound?
**A.** Its MIC50 is 16 µg/mL.

**Q.** And the MIC90 (E. coli [2]; ESBL (360))?
**A.** Its MIC90 is 32 µg/mL.

**Q.** And the “% susceptible by CLSI M100 criteria” value (E. coli [2]; Non-ESBL (2035))?
**A.** The value was 86.6%.

**Q.** And the MIC50 (E. coli [2]; Non-ESBL (2035))?
**A.** Its MIC50 is 4 µg/mL.

**Q.** And the MIC90 (E. coli [2]; Non-ESBL (2035))?
**A.** Its MIC90 is 16 µg/mL.

**Q.** And the MIC50 (P. mirabilis; P. mirabilis (235))?
**A.** Its MIC50 is 1/1 mg/mL.

**Q.** What about the MIC90 (P. mirabilis; P. mirabilis (235)) of the same compound?
**A.** The MIC90 was 1/1 mg/mL.

**Q.** What about the “% susceptible; CLSI” value (P. mirabilis; P. mirabilis (235)) of the same compound?
**A.** Its value is “(96.6) %”.

**Q.** What about the “% susceptible; CLSI” value (P. mirabilis; P. mirabilis (235), listed as amoxicillin/clavulanate) of the same compound?
**A.** Its value is 96.6%.

**Q.** And the MIC50 (Enterobacterales (ENT))?
**A.** Its MIC50 is 4000 µg/mL.

**Q.** And the MIC90 (Enterobacterales (ENT))?
**A.** The MIC90 was 32000 µg/mL.

**Q.** What about the “% susceptible; CLSI” value (Enterobacterales (ENT); cefuroxime: oral breakpoint) of the same compound?
**A.** The value was “(76.1) %”.

**Q.** What about the MIC50 (K. pneumoniae) of the same compound?
**A.** Its MIC50 is 2000 µg/mL.

**Q.** What about the MIC90 (K. pneumoniae) of the same compound?
**A.** Its MIC90 is 16000 µg/mL.

**Q.** And the “% susceptible; CLSI” value (K. pneumoniae; cefuroxime: oral breakpoint)?
**A.** Its value is “(86.7) %”.

**Q.** And the MIC50 (E. coli [7])?
**A.** The MIC50 was 4000 µg/mL.

**Q.** What about the MIC90 (E. coli [7]) of the same compound?
**A.** The MIC90 was 16000 µg/mL.

**Q.** What about the “% susceptible; CLSI” value (E. coli [7]; cefuroxime: oral breakpoint) of the same compound?
**A.** The value was “(80.8) %”.

**Q.** What about the “CLSI %1” value ([3]; Enterobacterales (36)) of the same compound?
**A.** The value was 11.1%.

**Q.** What about the “CLSI % R” value ([3]; Enterobacterales (36)) of the same compound?
**A.** The value was 86.1%.

**Q.** What about the “CLSI % S” value ([3]; Enterobacterales (36)) of the same compound?
**A.** Its value is 2.8%.

**Q.** What about the MIC50 ([3]; Enterobacterales (36)) of the same compound?
**A.** The MIC50 was >32 μ/ml.

**Q.** And the MIC90 ([3]; Enterobacterales (36))?
**A.** Its MIC90 is >32 μ/ml.
